In patent publication US20050042238A1, “Process for treating aqueous systems” (priority 2003, published 2005):

Tests used:
[1] = tested on: mold; assay: Dosing of micro-mixed emulsion to paper pulp slurry tank, mold proofing of paper; conditions: 50 wt. % solution in benzyl alcohol micro-mixed with water, charged to 10,000 liter pulp slurry tank
Experimental: A 10,000 liter pulp slurry tank has a continuous throughput averaging 6,600 liters/minute. A 50 wt. % solution of 4,5-dichloro-2-octyl-3-isothiazolone in benzyl alcohol is fed to an array of slit shaped interdigital micro-mixers at a feed rate of 56 mL/minute, combined with water fed to the micro-mixer at a feed rate of 600 mL/minute. The water contains no surfactants. The resulting emulsion exiting the micro-mixer is directly charged to water in the pulp slurry tank, where it is effectively distributed and re-circulated throughout the tank water. […] Focusing micro-mixers also produce similar results as compared to the micro-mixers described above.

[2] = tested on: algae; assay: Dosing of micro-mixed emulsion to cooling tower water, control of algae; conditions: isothiazolone 3 ppm in cooling water of a cooling tower; surfactant-free emulsion from micro-mixer
Experimental: A 50 wt. % solution of 4,5-dichloro-2-octyl-3-isothiazolone in benzyl alcohol is fed to an array of slit shaped interdigital micro-mixers at a feed rate of 50 mL/minute, combined with water fed to the micro-mixer at a feed rate of 600 mL/minute. The water contains no surfactants. The resulting emulsion exiting the micro-mixer it is directly dosed to cooling water in a 50,000 gallon […] cooling tower, where is effectively distributed and re-circulated throughout the cooling water. After about 20 minutes, the isothiazolone concentration in the cooling water reaches a desired concentration of 3 ppm and the emulsion feed is stopped. […] Focusing micro-mixers also produce similar results as compared to the micro-mixers described above. Melted 2-octyl-3-isothiazolone as a neat liquid is fed to an array of slit shaped interdigital micro-mixers at a feed rate of 50 mL/minute, combined with water fed to the micro-mixer at a feed rate of 600 mL/minute. The water contains no surfactants and solvents. The resulting emulsion exiting the micro-mixer it is directly dosed to cooling water in a 50,000 gallon […] cooling tower, where is effectively distributed and re-circulated throughout the cooling water. After about 20 minutes, the isothiazolone concentration in the cooling water reaches a desired concentration of 3 ppm and the emulsion feed is stopped. […]

SMILES	mold proofing in paper prepared from treated pulp [1]	control of algae in cooling water [2]
CCCCCCCCn1sc(Cl)c(Cl)c1=O [4,5-dichloro-2-octyl-3-isothiazolone]	effective mold proofing	Effective control of algae
CCCCCCCCn1sccc1=O [2-octyl-3-isothiazolone]		Effective control of algae
